Measurements as given in article PMC7865627, “Small Molecule-Based Prodrug Targeting Prostate Specific Membrane Antigen for the Treatment of Prostate Cancer” (Cancers, 2021).
Where two headings read alike, the source gives them in different places. *1 amine or outer side, *2 acyl side, *3 side chain or, on linkers, in order; H or OH if unused. Where a SMILES comes first, the peptide text is derived from it. Bridges are numbered along the chain shown (N, C = ends). Roman numbers before positions name the chains, in order. [ ]: non-standard residue; d: D form. The star is where a group is joined. X3 = CN1/C(=C/C=C/C=C/C2=[N+](CCCCCC(=O)*)c3ccc4ccccc4c3C2(C)C)C(C)(C)c2c1ccc1ccccc21; Dolaproine = CO[C@@H]([C@@H]1CCCN1)[C@@H](C)C(=O)O; Dil = CC[C@H](C)[C@H](NC)[C@@H](CC(=O)O)OC; X4 = O=C1CC([*:2])C(=O)N1CCCCCC(=O)[*:1]; γGlu = O=C(O)[C@H](CCC(=O)[*:2])N[*:1]; PABC = O=C(OCc1ccc(N[*:1])cc1)[*:2]; X2 = C[C@@H](N*)[C@@H](O)c1ccccc1; Trx = NC[C@H]1CC[C@H](C(=O)O)CC1; Cit = NC(=O)NCCC[C@H](N)C(=O)O; NMeV = CN[C@H](C(=O)O)C(C)C; CO = O=C([*:1])[*:2]; Ahx = NCCCCCC(=O)O

Tests used:
[1] = tested on: PSMA-negative PC3flu cells; test: In vitro cellular uptake (confocal fluorescence), PC3flu; type: cell-based, human; conditions: 50 nM conjugate, 4 h, 37 °C, confocal microscopy
Protocol: Figure 2 In vitro fluorescence studies of PSMA-1-MMAE-Cy5.5 conjugates. In vitro cellular uptake results of PSMA-targeted drug conjugates. Cells were incubated with 50 nM of drug conjugates for 4 h. Nuclei were stained by DAPI and are false colored blue, lysosomes were detected by LysoOrange and are false colored green, and drug conjugates are false colored red. Selective uptake was observed only in PC3pip cells and the conjugates were mainly located in lysosomes. Specificity of drug conjugates for PSMA binding was evaluated by including 1 mM of unlabeled PSMA-1 ligand during incubations. […] Images are taken at 40×. Representative images are shown from three independent experiments.
PC3pip and PC3flu cells were seeded in µ-Slide 8-Well Chamber Slide (ibidi GmbH, Munich, Germany) at 2000 cells/well. […] Cells were washed with PBS and stained with DAPI and LysoOrange (Abcam Inc., Cambridge, UK) for 30 min at 37 °C and 5% CO2, after which they were washed again with PBS and fresh medium added. Selectivity was determined by including 20-fold excess of the PSMA-1 ligand. The uptake and localization of the drug conjugates were visualized under a confocal microscope (Leica Biosystem, Wetzlar, Germany) at 40×.

[2] = tested on: heterotopic PC3pip and PC3flu tumors; test: In vivo NIR fluorescence imaging, mice bearing PC3pip and PC3flu tumors; parameters: species or system mouse; conditions: 40 nmol/kg i.v., 24-h post-injection, n = 5
Protocol: Under guidelines of the animal care and use committee at Case Western Reserve University (IACUC#150033) 6–8-week old male Balb/c athymic nude mice were implanted subcutaneously with 1 × 10^6 of PC3flu and PC3pip in 100 μL of matrigel on the left and right flank, respectively. […] Fluorescence imaging was performed using the Maestro In Vivo Imaging system (Perkin-Elmer Inc., Waltham, MA, USA). At 72-h post injection, mice were euthanized, tumor and organs were extracted for ex vivo imaging. Tumors were snap-frozen in OCT, cut into 10 μm thick sections and fixed on slides. The fluorescence signal from cy5.5 was observed under a Leica DM4000B microscope.

[3] = tested on: PSMA-positive PC3pip cells; test: In vitro cytotoxicity assay (CCK-8), PC3pip; type: cell-based, human
Protocol: (§1) Cells (1000/well) were seeded in 96-well culture plates the day before treatment.

[4] = tested on: α-tubulin in PC3flu cells; test: Immunofluorescence analysis of alpha-tubulin, PC3flu; type: cell-based, human; conditions: 5 nM, 24 h, Alexa Fluor 488 α-tubulin antibody
Protocol: (§2) Cells were washed and fixed with 4% paraformaldehyde for 10 min, permeabilized with 0.1% Triton™ X-100 for 10 min, and blocked with 1% BSA for 1 h at room temperature. Alpha-tubulin (B5-1-2) Alexa Fluor 488 Mouse Monoclonal Antibody (Invitrogen) was then added at 2 µg/mL in 0.1% BSA and incubated for 3 h at room temperature. Cells were counterstained with DAPI, mounted with Fluor-Mount aqueous mounting solution, and observed under Leica DM4000B fluorescence microscopy at 40×.

human liver cathepsin B = molecular target: T1, human liver cathepsin B (Homo sapiens, UniProt P07858); test: Enzymatic cleavage by cathepsin B, HPLC analysis; type: in vitro ADME; conditions: activated human liver cathepsin B, 2 μM conjugate, 37 °C, triplicate
T1 construct: purchased Anthens Research and Technology, Anthens, AL, USA (so in the source); host or cells: human liver (tissue-derived enzyme)
Protocol: (§3) Cathepsin is a prevalent protease that PSMA internalized ligands will encounter as they enter into late endosomes/lysosomes. To investigate if PSMA-targeted drug conjugates were cleavable by cathepsin B, the two conjugates were incubated with or without cathepsin protease and chromatographed by high performance liquid chromatography (HPLC).
(§4) At different time intervals, 40 μL of the solution was taken out into tubes loaded with 1 μL of 1 mM E64 protease inhibitor. […] Studies were performed in triplicate.

[5] = tested on: PSMA-negative PC3flu cells; test: In vitro cytotoxicity assay (CCK-8), PC3flu; type: cell-based, human; conditions: 72 h incubation, CCK-8; mean ± SD
Protocol: as §1

[6] = Stability on incubation in PBS (without cathepsin), HPLC; type: in vitro ADME; conditions: incubation with PBS without cathepsin, triplicate
Protocol: as §3, §4

[7] = tested on: α-tubulin in PC3pip cells; test: Immunofluorescence analysis of alpha-tubulin, PC3pip; type: cell-based, human; conditions: 5 nM, 24 h, Alexa Fluor 488 α-tubulin antibody
Protocol: as §2

[8] = tested on: tumor-free athymic nude mice; test: Maximum tolerated dose, single i.v. dose; type: in vivo, mouse; conditions: male nude mice, 3 per dose group, 14 days, 20% body weight loss or overt toxicity as end point
Text: Mice were monitored daily for 14 days.

[9] = tested on: heterotopic PC3pip tumors; test: Heterotopic PC3pip tumor survival study; type: in vivo
Protocol: Male athymic nude mice were implanted subcutaneously with 1 × 10^6 of PC3pip cells 100 μL of matrigel. When tumor size reached approximately 100 mm^3 (tumor volume = Length × width^2/2), mice received drugs through tail vein injection every 4 days with a total of five doses. Mice were treated every 4 days with a total of five doses. Animals were weighed and tumor size measured every other day for 90 days. Cures were defined as no tumor present at end of the 90-day study. When tumors became too large or animals were moribund they were euthanized. Five mice were used in each group.

[10] = tested on: heterotopic PC3pip tumors; test: Heterotopic PC3pip tumor survival study; type: in vivo; conditions: 160 nmol/kg, tumors extracted on day 4, compared with PSMA-1-McMMAE-Cy5.5
[11] = In vitro cytotoxicity assay (CCK-8), PC3pip; type: cell-based, human
Protocol: as §1

PSMA receptor = conditions: cited from earlier work
Text: Prostate-specific membrane antigen (PSMA) is a type II transmembrane protein that is overexpressed (by 100–1000 fold) by virtually all prostate cancers. PSMA expression is further increased in poorly differentiated, metastatic, hormone-refractory carcinomas and in cancer cells from castration-resistant prostate cancer patients. Increased PSMA expression is correlated with the risk of early prostate cancer recurrence after radical prostatectomy. […] BIND014 increased intr ...

[12] = 72 h incubation, CCK-8, mean ± SD
[13] = 160 nmol/kg i.v. every 4 days, five doses, n = 5

CC[C@H](C)[C@@H]([C@@H](CC(=O)N1CCC[C@H]1[C@H](OC)[C@@H](C)C(=O)N[C@H](C)[C@@H](O)c1ccccc1)OC)N(C)C(=O)[C@@H](NC(=O)[C@H](C(C)C)N(C)C(=O)CCCCCN1C(=O)CC(SC[C@H](NC(=O)[C@@H](CCC(=O)O)NC(=O)[C@@H](CCC(=O)O)NC(=O)[C@@H](CCC(=O)O)NC(=O)CCCCCNC(=O)[C@H]2CC[C@H](CNC(=O)CC[C@H](NC(=O)N[C@@H](CCC(=O)O)C(=O)O)C(=O)O)CC2)C(=O)NCCCCCC(=O)N[C@@H](CCCCNC(=O)CCCCC[N+]2=C(/C=C/C=C/C=C3/N(C)c4ccc5ccccc5c4C3(C)C)C(C)(C)c3c2ccc2ccccc32)C(N)=O)C1=O)C(C)C (stereo partly drawn) [PSMA-1-McMMAE-Cy5.5]
cellular uptake, fluorescence in PC3flu cells (in words) [1]: no fluorescence signal was observed
uptake in PSMA-negative PC3flu tumors (in words) [2]: little to no detectable uptake
EC50, cytotoxicity to PC3pip cells [3, 12]: no EC50 values could be obtained
disruption of α-tubulin in PC3flu cells (in words) [4]: no apparent disruption of tubulin
cleavage by cathepsin B (in words) (human liver cathepsin B): remained intact
EC50, cytotoxicity to PC3flu cells [5]: no EC50 values could be obtained
stability in PBS (in words) [6]: stable
disruption of α-tubulin in PC3pip cells (in words) [7]: no apparent disruption of tubulin

CC[C@H](C)[C@@H]([C@@H](CC(=O)N1CCC[C@H]1[C@H](OC)[C@@H](C)C(=O)N[C@H](C)[C@@H](O)c1ccccc1)OC)N(C)C(=O)[C@@H](NC(=O)[C@@H](NC)C(C)C)C(C)C [MMAE, monomethyl auristatin E, reference compound] (H-[NMeV]V[Dil][Dolaproine]-X2)
maximum tolerated dose (MTD) [8]: 700 nmol/kg
tumor growth (in words), 160 nmol/kg [9, 13]: did not show any antitumor activity
therapeutic index ([9]; MTD/effective dose): 1
lowest dose to effectively inhibit tumor growth ([9]; i.v. every 4 days, five doses, tumor growth inhibited for 30 days, n = 5): 700 nmol/kg
EC50 [3, 12]: 0.24 ± 0.05 nM
selectivity, differential cytotoxicity ratio between PC3pip and PC3flu cells ([3]; more potent for PC3pip than PC3flu): no selectivity
EC50 [5]: 0.21 ± 0.04 nM

CC[C@H](C)[C@@H]([C@@H](CC(=O)N1CCC[C@H]1[C@H](OC)[C@@H](C)C(=O)N[C@H](C)[C@@H](O)c1ccccc1)OC)N(C)C(=O)[C@@H](NC(=O)[C@H](C(C)C)N(C)C(=O)OCc1ccc(NC(=O)[C@H](CCCNC(N)=O)NC(=O)[C@@H](NC(=O)CCCCCN2C(=O)CC(SC[C@H](NC(=O)[C@@H](CCC(=O)O)NC(=O)[C@@H](CCC(=O)O)NC(=O)[C@@H](CCC(=O)O)NC(=O)CCCCCNC(=O)[C@H]3CC[C@H](CNC(=O)CC[C@H](NC(=O)N[C@@H](CCC(=O)O)C(=O)O)C(=O)O)CC3)C(=O)NCCCCCC(=O)N[C@@H](CCCCNC(=O)CCCCC[N+]3=C(/C=C/C=C/C=C4/N(C)c5ccc6ccccc6c5C4(C)C)C(C)(C)c4c3ccc3ccccc43)C(N)=O)C2=O)C(C)C)cc1)C(C)C (stereo partly drawn) [PSMA-1-VcMMAE-Cy5.5] (I: V[Cit][PABC][NMeV]V[Dil][Dolaproine]-X2 / II: {Glu-CO-γGlu-Trx-Ahx}-[dE][dE][dE]C[Ahx]K(X3)-NH2; linker I:N-II:4 via X4)
cellular uptake, fluorescence in PC3flu cells (in words) [1]: no fluorescence signal was observed
apoptosis, caspase 3 staining of tumors (in words) [10]: significantly more apoptosis
uptake in PSMA-negative PC3flu tumors (in words) [2]: little to no detectable uptake
cures (tumor-free mice at end of 90-day study), 160 nmol/kg [9, 13]: 3/5 and three out of five
tumor growth (in words), 160 nmol/kg [9, 13]: effectively inhibited tumor growth
cures, lower dose group of Figure S4B ([9]; dose group not printed beside the label, i.v. every 4 days, five doses, n = 5): 1/5
EC50 ([11]; 72 h, CCK-8, in the presence of protease inhibitor E64 (50 μM given for the Cy5.5 conjugates), read-out: EC50, cytotoxicity to PC3pip cells + E64): 3.66 nM
EC50 ([11]; 72 h incubation, CCK-8, mean ± SD, read-out: EC50, cytotoxicity to PC3pip cells): 0.84 nM
disruption of α-tubulin in PC3flu cells (in words) [4]: no obvious changes in α-tubulin structure
cleavage by cathepsin B (in words) (human liver cathepsin B): degraded rapidly
half-life in the presence of cathepsin (human liver cathepsin B): 19.8 min
stability in PBS (in words) [6]: stable
disruption of α-tubulin in PC3pip cells (in words) [7]: selective tubulin disruption

NCCCC[C@H](NC(=O)N[C@@H](CCC(=O)O)C(=O)O)C(=O)O [ZJ24, (S)-2-(3-((S)-5-amino-1-carboxypentyl)ureido) pentanedioic acid]
Ki (PSMA receptor; read-out: Ki to PSMA (ZJ24)): 0.3 nM

O=C(O)CCC(NC(=O)NC(CCC(=O)O)C(=O)O)C(=O)O (stereo not drawn) [DUPA, 2-(3-(1,3-dicarboxypropyl)-ureido) pentanedioic acid]
Ki (PSMA receptor; read-out: Ki to PSMA receptor (DUPA)): 8 nM
